Results: ChEMBL document CHEMBL1799982, “Synthesis, protein kinase inhibitory potencies, and in vitro antiproliferative activities of meridianin derivatives” (J Med Chem, 2011)
pIC50: −log10 of the molar value.

Key:
[1] = target: Dual specificity tyrosine-phosphorylation-regulated kinase 1A (Rattus norvegicus, UniProt Q63470); experiment: Inhibition of rat recombinant GST-tagged DYRK1A using myelin protein as substrate and [gamma32]-ATP after 30 mins by scintillation counting
[2] = target: Glycogen synthase kinase-3 (Sus scrofa, UniProt B2LUN4+I6LNT8); experiment: Inhibition of pig brain GSK-3alpha/beta using YRRAAVPPSPSLSRHSSPHQSpEDEEE as substrate
[3] = target: Dual specificity protein kinase CLK1 (Homo sapiens, UniProt P49759)
HT-22 = experiment: Antiproliferative activity against mouse HT22 cells by MTS reduction assay
PA-1 = experiment: Antiproliferative activity against human PA1 cells after 48 hrs by resazurin reduction test; format: functional, cell-based; conditions: PA-1, 48 h
PC-3 = experiment: Antiproliferative activity against human PC3 cells after 48 hrs by resazurin reduction test; conditions: PC-3, 48 h
[4] = Antiproliferative activity against human primary fibroblasts after 48 hrs by resazurin reduction test; format: cell-based; conditions: Fibroblast
[5] = target: Cyclin-dependent kinase 5/CDK5 activator 1 (Homo sapiens, UniProt Q00535); experiment: Inhibition of human recombinant CDK5/p25 using Histone H1 and [gamma32]-ATP after 30 mins by scintillation counting; format: protein-complex assay
[6] = Inhibition of pig brain CK1 delta/epsilon using RRKHAAIGpSAYSITA as substrate; set-up: species or system Sus scrofa
IMR-32 = experiment: Antiproliferative activity against human IMR32 cells by MTS reduction assay
MCF7 = experiment: Antiproliferative activity against human MCF7 cells after 48 hrs by resazurin reduction test; conditions: MCF7, 48 h
DU-145 = experiment: Antiproliferative activity against human DU145 cells after 48 hrs by resazurin reduction test; format: functional, cell-based; conditions: DU-145, 48 h
SH-SY5Y = experiment: Antiproliferative activity against human SH-SY5Y cells by MTS reduction assay

Dual specificity protein kinase CLK1, sequence (P49759 whole entry): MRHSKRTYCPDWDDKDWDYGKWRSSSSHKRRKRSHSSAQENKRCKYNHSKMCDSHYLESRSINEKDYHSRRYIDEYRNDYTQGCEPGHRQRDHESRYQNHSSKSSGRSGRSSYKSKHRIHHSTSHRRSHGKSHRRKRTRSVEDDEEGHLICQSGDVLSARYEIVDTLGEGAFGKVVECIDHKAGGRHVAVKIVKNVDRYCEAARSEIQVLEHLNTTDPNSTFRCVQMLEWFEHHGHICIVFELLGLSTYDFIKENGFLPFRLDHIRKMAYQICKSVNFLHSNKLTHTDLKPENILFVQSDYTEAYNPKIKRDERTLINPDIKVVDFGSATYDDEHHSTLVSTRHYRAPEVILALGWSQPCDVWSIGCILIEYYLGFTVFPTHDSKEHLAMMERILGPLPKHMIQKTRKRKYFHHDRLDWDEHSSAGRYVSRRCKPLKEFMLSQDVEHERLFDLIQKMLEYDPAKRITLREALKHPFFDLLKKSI
Cyclin-dependent kinase 5/CDK5 activator 1, sequence (Q00535 whole entry): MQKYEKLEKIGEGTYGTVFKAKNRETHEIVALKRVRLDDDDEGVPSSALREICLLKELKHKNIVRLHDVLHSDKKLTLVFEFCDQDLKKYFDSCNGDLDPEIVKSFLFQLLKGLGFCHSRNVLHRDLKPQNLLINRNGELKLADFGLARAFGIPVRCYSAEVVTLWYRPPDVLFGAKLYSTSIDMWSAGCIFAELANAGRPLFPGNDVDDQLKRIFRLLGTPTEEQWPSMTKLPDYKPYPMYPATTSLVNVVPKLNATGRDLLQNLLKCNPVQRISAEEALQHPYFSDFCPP
Cyclin-dependent kinase 5/CDK5 activator 1, sequence (Q15078 whole entry, further chain): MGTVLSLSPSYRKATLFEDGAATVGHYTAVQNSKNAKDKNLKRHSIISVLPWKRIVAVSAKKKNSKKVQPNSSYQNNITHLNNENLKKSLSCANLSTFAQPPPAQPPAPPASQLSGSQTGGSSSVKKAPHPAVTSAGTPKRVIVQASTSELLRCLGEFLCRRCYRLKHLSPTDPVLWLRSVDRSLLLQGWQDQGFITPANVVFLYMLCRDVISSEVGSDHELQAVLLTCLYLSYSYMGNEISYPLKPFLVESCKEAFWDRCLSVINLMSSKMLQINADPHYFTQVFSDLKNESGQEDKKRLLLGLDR

SMILES	pIC50 [1]	IC50 [2]	pIC50 [3]	pIC50 (HT-22)	pIC50 (PA-1)	pIC50 (PC-3)	pIC50 [4]	pIC50 [5]	pIC50 [6]	pIC50 (IMR-32)	pIC50 (MCF7)	pIC50 (DU-145)	pIC50 (SH-SY5Y)
CC(=O)c1ccc(-c2cnc(N)nc2-c2c[nH]c3cc(Br)ccc23)cc1	< 5.00	2 µM	5.74	5.60	> 6.22	> 6.22	> 6.22	< 5.00	< 5.00	6.48	6.00	> 6.22	6.40
CC(=O)c1ccc(-c2cnc(N)nc2-c2c[nH]c3ccc(Br)cc23)cc1	5.07	0.68 µM	5.80	5.00	< 5.00	< 5.00	–	< 5.00	< 5.00	4.89	5.38	–	< 4.60
Nc1ncc(-c2ccc(C(F)(F)F)cc2)c(-c2c[nH]c3cc(Br)ccc23)n1	< 5.00	6.1 µM	< 5.00	< 5.00	< 5.00	< 5.00	–	< 5.00	< 5.00	< 5.00	< 5.00	–	< 5.00
Nc1nccc(-c2c[nH]c3c(Br)cccc23)n1	7.17	> 10 µM	7.19	< 4.60	–	–	–	5.51	5.38	4.60	< 4.60	–	< 4.60
Nc1ncc(I)c(-c2c[nH]c3cccc(Br)c23)n1	5.84	> 10 µM	5.64	< 5.00	< 5.00	< 5.00	–	< 5.00	5.89	< 5.00	< 5.00	–	< 5.00
CC(=O)c1ccc(-c2cnc(N)nc2-c2c[nH]c3cccc(Br)c23)cc1	5.68	–	–	< 5.00	< 5.00	< 5.00	–	5.15	< 5.00	< 5.00	< 5.00	–	< 5.00
Nc1nccc(-c2c[nH]c3c([N+](=O)[O-])cccc23)n1	7.07	> 10 µM	7.15	< 4.60	–	–	–	5.20	5.00	< 4.60	< 4.60	–	< 4.60
Nc1ncc(I)c(-c2c[nH]c3ccc(Br)cc23)n1	6.48	2.1 µM	6.74	5.10	< 5.00	< 5.00	–	5.74	6.11	4.89	< 4.60	–	4.64
COc1cccc(-c2cnc(N)nc2-c2c[nH]c3cccc(Br)c23)c1	6.09	1.4 µM	5.89	< 5.00	< 5.00	< 5.00	–	5.22	< 5.00	< 5.00	< 5.00	–	< 5.00
Nc1nccc(-c2c[nH]c3cc([N+](=O)[O-])ccc23)n1	5.96	> 10 µM	6.42	< 4.60	–	–	–	< 5.00	5.20	< 4.60	< 4.60	–	< 4.60
COc1cccc(-c2cnc(N)nc2-c2c[nH]c3cc(Br)ccc23)c1	5.09	4.5 µM	5.64	4.80	< 5.00	< 5.00	–	< 5.00	5.49	4.74	< 4.60	–	< 4.60
COc1cccc(-c2cnc(N)nc2-c2c[nH]c3ccc(Br)cc23)c1	5.25	1.2 µM	5.60	4.74	< 5.00	< 5.00	–	5.12	5.66	4.70	< 4.60	–	< 4.60
Nc1nccc(-c2c[nH]c3ccccc23)n1	6.15	> 10 µM	6.28	< 4.60	–	–	–	5.30	5.21	< 4.60	< 4.60	–	< 4.60
Nc1ncc(-c2ccc(C(F)(F)F)cc2)c(-c2c[nH]c3cccc(Br)c23)n1	5.73	1 µM	5.89	< 5.00	< 5.00	< 5.00	–	5.33	< 5.00	< 5.00	< 5.00	–	< 5.00
